Where “and” joins values, the source holds several entries; their conditions need not be identical. Equal values may be shown once. Read-outs that look alike come from different tables or passages of the source.
Legend:
PIN8 = target: T1, PIN8 (Arabidopsis thaliana, UniProt Q9LFP6); experiment: SSM electrophysiology, KD by inhibition of the NPA binding current
T1 construct: made in house
T1 sequence (Q9LFP6 1-367): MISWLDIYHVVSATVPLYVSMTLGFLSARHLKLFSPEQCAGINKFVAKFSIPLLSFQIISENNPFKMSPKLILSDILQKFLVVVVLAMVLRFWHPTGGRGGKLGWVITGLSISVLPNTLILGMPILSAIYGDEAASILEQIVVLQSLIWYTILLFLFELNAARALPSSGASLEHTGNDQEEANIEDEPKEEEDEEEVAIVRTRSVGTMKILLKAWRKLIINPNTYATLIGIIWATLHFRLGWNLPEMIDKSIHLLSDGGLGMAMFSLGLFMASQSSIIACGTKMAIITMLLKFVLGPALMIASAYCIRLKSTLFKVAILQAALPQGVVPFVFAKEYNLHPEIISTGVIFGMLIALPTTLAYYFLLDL
Method: (§1) SSM, using a SURFE2R N1 from Nanion Technologies, was conducted as described. In brief, soy polar lipid mix (38% phosphatidyl choline, 30% phosphatidyl ethanolamine, 18% phosphatidyl inositol, 7% phosphatidic acid and 7% other soy lipids) and 1-palmitoyl-2-oleoyl-sn-glycero-3-phosphocholin were purchased from Avanti. Liposomes were prepared in Ringer solution without Ca^2+ (115 mM NaCl, 2.5 mM KCl, 1 mM NaHCO3, 10 mM HEPES pH7.4, 1 mM MgCl2) and homogenized using a Lipsofast (Avestin) with a […]. Triton X-100 was added to the liposomes to a final concentration of 1% (v/v). Protein was added to liposomes to a calculated lipid-to-protein ratio (LPR) of 10 unless stated otherwise. The detergent was removed using 400 mg ml^−1 Bio Beads (BioRad) overnight at 4 °C in a rotary shaker. Proteoliposomes were frozen in liquid nitrogen and kept at −80 °C until use. Proteoliposomes were diluted 1:5 in Ringer solution without Ca^2+, sonicated five times and then applied to the sensors by centrifugation (30 min, 3,000 g, 4 °C). Non-activating buffer was Ringer solution without Ca^2+ as described unless specified otherwise, and activating buffer contained the substrate of interest. In most instances we used a single-solution exchange experiment. In this case proteoliposomes, immobilized on the supported membrane, are kept in non-activating buffer as specified. At the beginning of the experiment the non-activating buffer is replaced with fresh identical non-activating buffer, and after 1 s, activating buffer (same buffer containing substrate) is added. After another second, the buffer is replaced with non-activating buffer again. Current response is recorded throughout the entire 3 s. For competition or inhibition, the respective compound was present in non-activating and activating solutions. Each experiment was performed on at least two individual sensors. On each sensor each measurement consists of three technical replicates where the mean is calculated. KD values were determined as described previously. Briefly, the binding current induced by 100 µM NPA was recorded in the presence of different concentrations of the substrate under investigation ranging between 0 µM and 1,000 µM present in the activating solution and the non-activating solution (Extended Data Fig. 5b). […] The maximum peak current was then plotted as a function of the concentration of the substrate under investigation and plotted against the degree of inhibition and fitted with a one-site binding model using GraphPad Prism V10.4.1 The half maximal concentration corresponds to the KD of the substrate under investigation.

PIN8 N223A = target: T2, PIN8 N223A (Arabidopsis thaliana, UniProt Q9LFP6, N223A); assay type: biochemical; settings: PIN8 N223A, Michaelis–Menten fit
T2 construct: made in house
T2 sequence (Q9LFP6 whole entry N223A): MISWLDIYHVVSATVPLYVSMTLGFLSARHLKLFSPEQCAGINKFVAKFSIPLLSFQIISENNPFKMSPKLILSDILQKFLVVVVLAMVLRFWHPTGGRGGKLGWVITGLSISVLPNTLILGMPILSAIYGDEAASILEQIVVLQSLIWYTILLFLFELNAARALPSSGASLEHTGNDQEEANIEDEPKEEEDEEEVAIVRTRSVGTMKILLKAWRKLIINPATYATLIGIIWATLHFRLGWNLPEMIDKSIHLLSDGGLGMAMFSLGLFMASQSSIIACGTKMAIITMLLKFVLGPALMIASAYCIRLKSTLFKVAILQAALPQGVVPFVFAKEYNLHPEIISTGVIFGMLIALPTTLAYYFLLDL
Method: as §1
The protocol for expression and purification of AtPIN8 protein (Uniprot: Q9LFP6) in lauryl maltose neopentyl glycol was described previously. All point mutants were generated using Q5 Site-Directed mutagenesis kit (New England Biolabs). The C-flat Holey Carbon grids (CF-1.2/1.3, Cu-300 mesh) were glow-discharged for 45 s at 15 mA in a GloQube Plus (Quorum). […] After 1 h of incubation on ice, the sample was centrifuged at 16,000 g for 15 min before blotting to remove precipitation. A drop of 4 µl of each sample was applied to the glow-discharged grids, blotted with a Vitrobot Mark IV (ThermoFisher Scientific) using the following settings (temperature 4 °C, 100% humidity, blot time of 4 s, blot force −1) and vitrified in liquid ethane.

[1] = target: T3, wild-type PIN8 proteoliposomes (Arabidopsis thaliana, UniProt Q9LFP6); experiment: SSM electrophysiology, peak width (FWHM) of current response at LPR10 and LPR50; assay type: biochemical; settings: for Rel. FWHM (% of LPR10): replicates
T3 construct: made in house
T3 sequence (Q9LFP6 1-367): T1 sequence (Q9LFP6 1-367)
Method: as §1

A. thaliana PIN8 = target: T4, A. thaliana PIN8 (Arabidopsis thaliana, UniProt Q9LFP6); experiment: SSM electrophysiology, peak current response on PIN8 proteoliposomes; assay type: biochemical; settings: 100 μM 2,4-D, 20 µM NPA
T4 construct: made in house
T4 sequence (Q9LFP6 1-367): T1 sequence (Q9LFP6 1-367)
Method: as §1

[2] = 100 µM substrate, 100 µM NPA, individual sensors, read-out: Rel. Inhibition of NPA peak currents
[3] = 250 µM substrate, 100 µM NPA, individual sensors, read-out: Rel. Inhibition of NPA peak currents
[4] = 500 µM substrate, 100 µM NPA, individual sensors, read-out: Rel. Inhibition of NPA peak currents
[5] = 1000 µM substrate, 100 µM NPA, individual sensors, read-out: Rel. Inhibition of NPA peak currents
[6] = sheet F2A (Fig. 2a, KD of substrate binding), individual sensors, read-out: Peak current
[7] = 20 µM substrate, 100 µM NPA, individual sensors, read-out: Rel. Inhibition of NPA peak currents
[8] = 50 µM substrate, 100 µM NPA, individual sensors, read-out: Rel. Inhibition of NPA peak currents
[9] = Peak current, sheet F2A (Fig. 2a, KD of substrate binding), individual sensors
[10] = read-out: Rel. Inhibition of NPA peak currents, 50 µM substrate, 100 µM NPA, individual sensors
[11] = read-out: Rel. Inhibition of NPA peak currents, 100 µM substrate, 100 µM NPA, individual sensors
[12] = read-out: Rel. Inhibition of NPA peak currents, 250 µM substrate, 100 µM NPA, individual sensors
[13] = read-out: Rel. Inhibition of NPA peak currents, 500 µM substrate, 100 µM NPA, individual sensors
[14] = read-out: Rel. Inhibition of NPA peak currents, 1000 µM substrate, 100 µM NPA, individual sensors

Structure (SMILES) | inhibition at 100 µM (PIN8; [2]) [%] | inhibition at 250 µM (PIN8; [3]) [%] | inhibition at 500 µM (PIN8; [4]) [%] | inhibition at 1000 µM (PIN8; [5]) [%] | Kd (PIN8; [6]) | inhibition at 20 µM (PIN8; [7]) [%] | inhibition at 50 µM (PIN8; [8]) [%] | binding affinity to PIN8 in words (PIN8) | Rel. FWHM (% of LPR10) ([1]; LPR10) | Rel. FWHM (% of LPR10) ([1]; LPR50) | Kd (PIN8; [9]) | inhibition at 250 µM (PIN8; [12]) [%] | inhibition at 500 µM (PIN8; [13]) [%] | inhibition at 1000 µM (PIN8; [14]) [%] | also measured
Cc1ccc(OCC(=O)O)cc1 [4-MPA, 4-methylphenoxyacetic acid] | 12.1 | 25.7 | 40.8 | 58.3 | 710 µM and 614 µM and 521 µM |  |  |  |  |  |  |  |  |  | inhibition at 2000 µM (PIN8; 2000 µM substrate, 100 µM NPA, individual sensors, read-out: Rel. Inhibition of NPA peak currents): 72.8%
Cc1ccc(OCC(=O)O)c(C)c1 [2,4-DMPA, 2-(2,4-dimethylphenoxy)acetic acid] | 37 | 61.3 | 78.8 | 92.8 | 205 µM and 139 µM and 178 µM | 9.25 | 21.8 |  |  |  |  |  |  |  | Kd (PIN8; inhibition of peak current elicited by 100 µM NPA, read-out: KD of substrate binding by PIN8): 174 ± 33 µM
O=C(O)COc1ccccc1Cl [2-CPA, 2-chlorophenoxyacetic acid] | 57 |  | 94.3 | 99.8 | 106 µM and 112 µM and 101 µM | 19.9 | 33.3 | high affinity, comparable to that of IAA and 2,4-D | 0.9412 % of LPR10 and 1.059 % of LPR10 and 1 % of LPR10 | 1.824 % of LPR10 (2×) and 1.235 % of LPR10 and 1.647 % of LPR10 |  |  |  |  | Imax (PIN8 N223A): 3 ± 0.1 nA and 2.6 ± 0.1 nA; EC50 (PIN8 N223A; No transport = model could not be fit, read-out: EC50 of peak current response): 263 µM
Cc1cc(Cl)ccc1OCC(=O)O [MCPA, 2-methyl-4-chlorophenoxyacetic acid] |  |  |  |  |  |  |  | intermediate affinity |  |  | 149 µM and 159 µM and 103 µM | 65.4 | 78.3 | 88.6 | inhibition at 50 µM (PIN8; [10]): 25.1%; inhibition at 100 µM (PIN8; [11]): 41.7%
O=C(O)COc1ccc(Cl)cc1Cl [2,4D] |  |  |  |  |  |  |  |  | 1.043 % of LPR10 (2×) and 0.913 % of LPR10 | 1.565 % of LPR10 and 1.304 % of LPR10 and 1.239 % of LPR10 and 1.63 % of LPR10 |  |  |  |  | 
O=C(O)c1ccccc1C(=O)Nc1cccc2ccccc12 [NPA, 1-N-naphthylphthalamic acid] |  |  |  |  |  |  |  |  | 0.9324 % of LPR10 and 1.054 % of LPR10 and 1.014 % of LPR10 | 0.6892 % of LPR10 and 0.7297 % of LPR10 and 0.7703 % of LPR10 |  |  |  |  | effect on the PIN8 current response to 2,4-D (A. thaliana PIN8): inhibited; peak width of SSM-based current response as a function of lipid-to-protein ratio (LPR) ([1]; LPR10 versus LPR50): does not change with LPR
O=C(O)COc1ccccc1 [PA, phenoxyacetic acid] |  |  |  |  | 485 µM |  |  |  |  |  | 605 µM and 377 µM | 30.3 | 47.3 | 60.5 | 
O=C(O)COc1cc(Cl)c(Cl)cc1Cl [2,4,5-T, 2,4,5-trichlorophenoxyacetic acid] |  |  |  |  | 8.98 µM |  |  | highest affinity |  |  | 9.28 µM | 91 | 95.3 | 98.4 | inhibition at 1 µM (PIN8; read-out: Rel. Inhibition of NPA peak currents, 1 µM substrate, 100 µM NPA, individual sensors): 11.8%; inhibition at 5 µM (PIN8; read-out: Rel. Inhibition of NPA peak currents, 5 µM substrate, 100 µM NPA, individual sensors): 35.9%; inhibition at 20 µM (PIN8; read-out: Rel. Inhibition of NPA peak currents, 20 µM substrate, 100 µM NPA, individual sensors): 65.7%; inhibition at 50 µM (PIN8; [10]): 78.2%; inhibition at 100 µM (PIN8; [11]): 87.3%
Cc1ccccc1OCC(=O)O [2-MPA, 2-methylphenoxyacetic acid] | 27.5 | 53.9 | 74.7 | 82.9 | 284 µM and 209 µM and 256 µM |  | 13 |  |  |  |  |  |  |  | 
O=C(O)CCc1ccc(Cl)cc1Cl [2,4-DPP, 3-(2,4-dichlorophenyl)-propionic acid] | 63.6 | 77.8 | 77.9 |  | 18.1 µM and 22.4 µM and 23.3 µM | 37.2 | 51.9 | higher affinity than 2,4-D |  |  |  |  |  |  | inhibition at 5 µM (PIN8; 5 µM substrate, 100 µM NPA, individual sensors, read-out: Rel. Inhibition of NPA peak currents): 15.1%

Reference: publication PMC12095047, “Transport of phenoxyacetic acid herbicides by PIN-FORMED auxin transporters” (Nature Plants, 2025)
